Results as given in PMC8262356, “SLC26A6-selective inhibitor identified in a small-molecule screen blocks fluid absorption in small intestine” (JCI Insight, 2021).

Molecular target: T1, ENaC (Homo sapiens, UniProt P37088+P51168+P51170)
T1 construct: endogenous in cells; host or cells: well-differentiated human bronchial epithelial (HBE) cells at air-liquid interface
T1 sequence (P37088 1-669): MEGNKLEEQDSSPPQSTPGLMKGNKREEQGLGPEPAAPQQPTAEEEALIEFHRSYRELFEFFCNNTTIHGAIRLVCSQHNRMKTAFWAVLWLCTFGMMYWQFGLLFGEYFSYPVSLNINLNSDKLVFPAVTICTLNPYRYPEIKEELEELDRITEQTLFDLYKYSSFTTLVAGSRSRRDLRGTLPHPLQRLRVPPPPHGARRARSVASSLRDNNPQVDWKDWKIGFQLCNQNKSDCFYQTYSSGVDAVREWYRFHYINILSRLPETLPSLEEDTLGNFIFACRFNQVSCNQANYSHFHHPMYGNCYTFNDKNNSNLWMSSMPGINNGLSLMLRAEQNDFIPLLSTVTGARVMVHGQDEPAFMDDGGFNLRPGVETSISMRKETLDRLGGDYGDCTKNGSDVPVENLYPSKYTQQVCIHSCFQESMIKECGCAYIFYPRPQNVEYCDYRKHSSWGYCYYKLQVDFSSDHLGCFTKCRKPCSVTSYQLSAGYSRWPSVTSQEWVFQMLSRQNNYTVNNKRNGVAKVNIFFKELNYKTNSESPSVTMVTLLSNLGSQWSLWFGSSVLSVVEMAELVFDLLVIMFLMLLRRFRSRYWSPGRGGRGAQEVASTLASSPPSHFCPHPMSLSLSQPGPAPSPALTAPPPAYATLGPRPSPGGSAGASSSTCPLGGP
T1 sequence (P51168 1-640): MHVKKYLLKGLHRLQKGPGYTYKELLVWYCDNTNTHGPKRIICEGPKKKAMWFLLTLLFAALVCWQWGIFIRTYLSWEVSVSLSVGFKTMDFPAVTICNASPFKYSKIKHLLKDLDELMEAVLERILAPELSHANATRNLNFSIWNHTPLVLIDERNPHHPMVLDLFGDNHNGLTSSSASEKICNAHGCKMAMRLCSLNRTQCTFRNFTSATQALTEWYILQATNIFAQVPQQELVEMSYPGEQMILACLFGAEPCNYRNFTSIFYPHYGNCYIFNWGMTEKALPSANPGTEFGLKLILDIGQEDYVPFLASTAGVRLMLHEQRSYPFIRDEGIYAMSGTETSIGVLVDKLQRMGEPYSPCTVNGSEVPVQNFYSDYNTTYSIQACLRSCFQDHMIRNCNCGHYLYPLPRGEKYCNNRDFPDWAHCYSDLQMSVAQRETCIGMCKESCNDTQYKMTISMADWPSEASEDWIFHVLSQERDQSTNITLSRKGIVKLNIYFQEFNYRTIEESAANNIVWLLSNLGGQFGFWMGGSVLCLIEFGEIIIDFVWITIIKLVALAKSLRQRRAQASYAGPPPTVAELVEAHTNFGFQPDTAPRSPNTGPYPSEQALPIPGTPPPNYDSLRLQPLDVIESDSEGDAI
T1 sequence (P51170 1-649): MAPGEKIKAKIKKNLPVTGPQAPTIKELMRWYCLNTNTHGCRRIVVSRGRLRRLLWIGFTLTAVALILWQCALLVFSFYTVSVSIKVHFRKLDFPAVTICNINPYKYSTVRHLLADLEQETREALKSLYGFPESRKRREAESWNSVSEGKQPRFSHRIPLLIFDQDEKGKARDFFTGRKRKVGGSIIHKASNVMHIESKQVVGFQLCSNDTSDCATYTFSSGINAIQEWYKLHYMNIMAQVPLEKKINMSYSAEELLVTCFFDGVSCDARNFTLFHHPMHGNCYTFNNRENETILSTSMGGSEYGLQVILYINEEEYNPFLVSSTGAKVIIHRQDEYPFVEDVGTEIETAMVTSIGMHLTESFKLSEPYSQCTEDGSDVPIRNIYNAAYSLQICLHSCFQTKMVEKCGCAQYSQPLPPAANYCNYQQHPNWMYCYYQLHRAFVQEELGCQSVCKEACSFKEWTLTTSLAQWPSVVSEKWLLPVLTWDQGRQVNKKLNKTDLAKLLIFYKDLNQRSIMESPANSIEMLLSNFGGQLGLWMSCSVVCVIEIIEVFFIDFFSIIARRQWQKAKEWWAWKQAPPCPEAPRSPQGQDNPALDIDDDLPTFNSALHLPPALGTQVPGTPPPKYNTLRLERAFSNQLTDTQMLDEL
Test: Short-circuit current in well-differentiated HBE cells, amiloride response
Format: cell-based
Conditions: 25 μM pretreatment
Procedure: PAT1inh-B01 selectivity was studied by testing its effects on related SLC26A family anion transporters and the Cl^– channel TMEM16A. These measurements used a similar Cl^–/I^– exchange protocol, but FRT cells separately expressed each of the SLC26A family members or TMEM16A. […] PAT1inh-B01 selectivity was also tested by short-circuit current (Isc) in well-differentiated human bronchial epithelial (HBE) cells, which have a complex ion transport mechanism that includes cystic fibrosis transmembrane conductance regulator (CFTR), epithelial Na^+ channel (ENaC), and Ca^+2-activated chloride channels (CaCCs) ([13]). […] Potential PAT1inh-B01 cytotoxicity was studied in FRT cells.
Figure 3 PAT1inh-B01 selectivity and cytotoxicity. […] Cl^–/I^– exchange or I^– influx measured in FRT cells coexpressing YFP and SLC26A isoforms or TMEM16A, with data shown for 25 μM PAT1inh-B01, DMSO vehicle control, and 500 μM niflumic acid (positive control for SLC26A transporters) or 10 μM TMinh-23 (positive control for TMEM16A). […] (C) (left) Short-circuit current (Isc) in well-differentiated HBE cells measured in the absence (top) and presence (bottom) of 25 μM PAT1inh-B01. […]
YFP-based cellular assays of slc26a3, slc26a4, SLC26A9, and TMEM16A function were performed as described previously ([7]). […] The activities of ENaC, CFTR, and CaCC were determined using well-differentiated HBE cells as described previously ([13]). […]

effect on ENaC activity (Isc response to amiloride): no significant effect
SMILES: Cc1c(Br)c(C(F)(F)F)nn1CC(=O)N1CCc2nc3cc(-c4ccccc4)[nH]n3c(=O)c2C1 [PAT1inh-B01]
